Experimental data reported in patent US9273057B2 (Bristol-Myers Squibb Company, priority 2012, dated 2016).
Where a name gives a salt, the structure may show the parent alone.

Biological target: CK2A1 (CK2α/β) (Homo sapiens, UniProt P68400)
Test: CK2 kinase assay, CK2A1 (CK2α/β)
Assay type: biochemical
Conditions: Table A; read-out: CK2A1 (CK2α/β) (IC50)

CK2A1 (CK2α/β), sequence (P68400 whole entry, species assumed): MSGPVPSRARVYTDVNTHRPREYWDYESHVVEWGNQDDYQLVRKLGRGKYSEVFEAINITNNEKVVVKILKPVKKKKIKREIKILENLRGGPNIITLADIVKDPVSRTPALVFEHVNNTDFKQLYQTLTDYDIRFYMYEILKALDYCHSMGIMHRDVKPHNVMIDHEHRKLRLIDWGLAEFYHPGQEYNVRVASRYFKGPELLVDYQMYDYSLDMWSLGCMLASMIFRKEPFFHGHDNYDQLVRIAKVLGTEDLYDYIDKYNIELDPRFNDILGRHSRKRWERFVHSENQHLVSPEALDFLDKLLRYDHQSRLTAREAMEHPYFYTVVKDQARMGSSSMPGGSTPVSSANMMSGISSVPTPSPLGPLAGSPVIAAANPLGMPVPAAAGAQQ
CK2A1 (CK2α/β), sequence (P67870 whole entry partner, species assumed): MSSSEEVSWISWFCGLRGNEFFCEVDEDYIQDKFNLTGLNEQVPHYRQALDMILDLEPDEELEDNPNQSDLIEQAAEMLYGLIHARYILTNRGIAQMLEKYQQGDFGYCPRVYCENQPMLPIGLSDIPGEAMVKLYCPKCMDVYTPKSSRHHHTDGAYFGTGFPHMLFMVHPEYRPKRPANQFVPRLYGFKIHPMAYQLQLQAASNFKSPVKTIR

Row | Structure (SMILES) | IC50 [nM]
1 | N#Cc1cc(Nc2nc(NC3CC3)c3ncc(C#N)n3n2)c(Cl)c(N2CCC(NC3CCOCC3)CC2)c1 [Example 125, 2-((2-chloro-5-cyano-3-(4-(tetrahydro-2H-pyran-4-ylamino)-1-piperidinyl)phenyl)amino)-4-(cyclopropylamino)imidazo [2,1-f][1,2,4]triazine-7-carbonitrile] | 0.75
2 | CCOC(=O)N1CCC(NC2CCN(c3cc(C#N)cc(Nc4nc(NC5CC5)c5ncc(C#N)n5n4)c3Cl)CC2)CC1 [Example 118, ethyl 4-((1-(2-chloro-5-cyano-3-((7-cyano-4-(cyclopropylamino)imidazo [2,1-f][1,2,4]triazin-2-yl)amino)phenyl)-4-piperidinyl)amino)-1-piperidinecarboxylate] | 0.84
3 | COC(=O)NCC1CN(c2cc(C#N)cc(Nc3nc(NC4CC4)c4ncc(C#N)n4n3)c2Cl)CCN1C (centres unmarked) [Example 713, methyl N-{[4-(2-chloro-5-cyano-3-{[7-cyano-4-(cyclopropylamino)imidazo[2,1-f][1,2,4]triazin-2-yl]amino}phenyl)-1-methylpiperazin-2-yl]methyl}carbamate] | 5.48
4 | CN1CCN(c2cc(C#N)cc(Nc3nc(NC4CC4)c4ncc(C#N)n4n3)c2Cl)CC1C(C)(C)O (racemic) [Example 34, (+/−) 2-((2-chloro-5-cyano-3-(3-(1-hydroxy-1-methylethyl)-4-methyl-1-piperazinyl)phenyl)amino)-4-(cyclopropylamino)imidazo [2,1-f][1,2,4]triazine-7-carbonitrile] | 0.92
5 | N#Cc1cc(Nc2nc(NC3CC3)c3ncc(C#N)n3n2)c(Cl)c(N2CCN([C@H]3C[C@H](F)C3)CC2)c1 [Example 601, 2-[(2-chloro-5-cyano-3-{4-[(1r,3r)-3-fluorocyclobutyl]piperazin-1-yl}phenyl)amino]-4-(cyclopropylamino)imidazo [2,1-f][1,2,4]triazine-7-carbonitrile] | 1.41
6 | CCNc1nc(Nc2cc(C#N)cc(N3CCC4(CCN(C)C4=O)CC3)c2Cl)nn2c(C#N)cnc12 (racemic) [Example 784, (+/−)-2-((2-chloro-5-cyano-3-(2-methyl-1-oxo-2,8-diazaspiro[4.5]decan-8-yl)phenyl)amino)-4-(ethylamino)imidazo[2,1-f][1,2,4]triazine-7-carbonitrile] | 1.88
7 | CN1CC(N2CCN(c3cc(C#N)cc(Nc4nc(NC5CC5)c5ncc(C#N)n5n4)c3Cl)CC2)C1 [Example 72, 2-((2-chloro-5-cyano-3-(4-(1-methyl-3-azetidinyl)-1-piperazinyl)phenyl)amino)-4-(cyclopropylamino) imidazo[2,1-f][1,2,4] triazine-7-carbonitrile] | 0.79
8 | N#Cc1cc(Nc2nc(NC3CC3)c3ncc(C#N)n3n2)c(Cl)c(N2CCN(C3CCS(=O)(=O)C3)CC2)c1 (centres unmarked) [Example 582, 2-({2-chloro-5-cyano-3-[4-(1,1-dioxo-1λ^6-thiolan-3-yl)piperazin-1-yl]phenyl}amino)-4-(cyclopropylamino)imidazo [2,1-f][1,2,4]triazine-7-carbonitrile] | 5.9
9 | N#Cc1cnc2c(NC3CC3)nc(Nc3cc(C(F)F)cc(C4CCN(C5COC5)CC4)c3Cl)nn12 [Example 407, 2-((2-chloro-5-(difluoromethyl)-3-(1-(3-oxetanyl)-4-piperidinyl)phenyl)amino)-4-(cyclopropylamino)imidazo[2,1-f][1,2,4]triazine-7-carbonitrile] | 1.76
10 | CCN1CC2(CCN(c3cc(C#N)cc(Nc4nc(NC5CC5)c5ncc(C#N)n5n4)c3Cl)CC2)C1 [Example 801, 2-((2-chloro-5-cyano-3-(2-ethyl-2,7-diazaspiro[3.5]nonan-7-yl)phenyl)amino)-4-(cyclopropylamino)imidazo[2,1-f][1,2,4]triazine-7-carbonitrile] | 2.16
11 | N#Cc1cc(CN2CCNCC2)c(Cl)c(Nc2nc(NC3CC3)c3ncc(C#N)n3n2)c1 [Example 668, 2-((2-chloro-5-cyano-3-(piperazin-1-ylmethyl)phenyl)amino)-4-(cyclopropylamino)imidazo[2,1-f][1,2,4]triazine-7-carbonitrile] | 0.76
12 | CS(=O)(=O)N[C@@H]1CCN(c2cc(C#N)cc(Nc3nc(NC4CC4)c4ncc(C#N)n4n3)c2Cl)C[C@H]1O [Example 175, N-((3R,4R)-1-(2-chloro-5-cyano-3-((7-cyano-4-(cyclopropylamino)imidazo[2,1-f][1,2,4]triazin-2-yl)amino)phenyl)-3-hydroxypiperidin-4-yl)methanesulfonamide] | 1.06
13 | CO[C@@H]1CN(c2cc(C#N)cc(Nc3nc(NC4CC4)c4ncc(C#N)n4n3)c2Cl)CC1NC1COC1 (stereo in doubt) [Example 302, 2-((2-chloro-5-cyano-3-((3R,4S)-3-methoxy-4-(oxetan-3-ylamino)pyrrolidin-1-yl)phenyl)amino)-4-(cyclopropylamino)imidazo[2,1-f][1,2,4]triazine-7-carbonitrile, HCl] | 1.7

Molecules with a lower IC50, results first:

Row | IC50 [nM] | Structure (SMILES)
14 | 0.66 | N#Cc1cc(Nc2nc(NC3CC3)c3ncc(C#N)n3n2)c(Cl)c(N2CCN(CC(F)F)CC2)c1 [Example 52, 2-((2-chloro-5-cyano-3-(4-(2,2-difluoroethyl)-1-piperazinyl)phenyl)amino)-4-(cyclopropylamino)imidazo[2,1-f][1,2,4]triazine-7-carbonitrile]
15 | 0.67 | COCCOC(=O)N1CCN(c2cc(C#N)cc(Nc3nc(NC4CC4)c4ncc(C#N)n4n3)c2Cl)CC1 [Example 68, 2-methoxyethyl 4-(2-chloro-5-cyano-3-((7-cyano-4-(cyclopropylamino)imidazo[2,1-f] [1,2,4]triazin-2-yl)amino)phenyl)-1-piperazinecarboxylate]
16 | 0.43 | C[C@@H](O)Cn1nc(C#N)c2cc(Nc3nc(NC4CC4)c4ncc(C#N)n4n3)ccc21 [Example 393, (R)-2-((3-cyano-1-(2-hydroxypropyl)-1H-indazol-5-yl)amino)-4-(cyclopropylamino)imidazo[2,1-f][1,2,4]triazine-7-carbonitrile, HCl]
17 | 0.6 | COCCOCC(=O)N1CCN(c2cc(C#N)cc(Nc3nc(NC4CC4)c4ncc(C#N)n4n3)c2Cl)CC1 [Example 88, 2-((2-chloro-5-cyano-3-(4-((2-methoxyethoxy)acetyl)-1-piperazinyl)phenyl)amino)-4-(cyclopropylamino) imidazo[2,1-f][1,2,4] triazine-7-carbonitrile]
18 | 0.54 | CC(C)(O)C1CN(c2cc(C#N)cc(Nc3nc(NC4CC4)c4ncc(C#N)n4n3)c2Cl)CCO1 (racemic) [Example 33, (+/−) 2-((2-chloro-5-cyano-3-(2-(1-hydroxy-1-methylethyl)-4-morpholinyl)phenyl)amino)-4-(cyclopropylamino)imidazo [2,1-f][1,2,4]triazine-7-carbonitrile]
19 | 0.6 | N#Cc1cc(Nc2nc(NC3CC3)c3ncc(C#N)n3n2)c(Cl)c(C2CCN(C3CC[C@@H](N)[C@H](O)C3)CC2)c1 (stereo partly drawn) [Example 217, 2-((3-(1-((3R,4R)-4-amino-3-hydroxycyclohexyl)-4-piperidinyl)-2-chloro-5-cyanophenyl)amino)-4-(cyclopropylamino)imidazo[2,1-f][1,2,4]triazine-7-carbonitrile]
20 | 0.53 | N#Cc1cc(Nc2nc(NC3CC3)c3ncc(C#N)n3n2)c(Cl)c(N2CCN(C(=O)CCO)CC2)c1 [Example 90, 2-(2-chloro-5-cyano-3-(4-(3-hydroxypropanoyl)piperazin-1-yl)phenylamino)-4-(cyclopropylamino) imidazo[1,2-f][1,2,4] triazine-7-carbonitrile]
